# Measurements published in patent publication US20100298141A1, “SUBSTITUTED PYRIDINE N-OXIDE HERBICIDES” (E. I. DU PONT DE NEMOURS AND COMPANY, priority 2007, published 2010).
# Columns and labels:
# [1] = system: morningglory; assay: Test A pre-/postemergence greenhouse test; format: in vivo, Ipomoea spp.; details: for Plant response rating, Morningglory: 0 to 100 scale where 0 is no effect and 100 is complete control; for Morningglory plant response rating: 0 to 100 scale
# Method in brief: (§1)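 Planting was into mixed loam soil and sand; preemergence treatment followed as a directed soil spray. Concurrently, emerged plants (one- to two-leaf, 2–10 cm) received postemergence applications of identically formulated compound (non-phytotoxic solvent, surfactant). After approximately ten days under greenhouse conditions, injury was judged by eye against untreated plants.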
# [2] = system: rice; assay: Test C flooded paddy test; format: in vivo, Oryza sativa; details: Flood
# Method in brief: (§2)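 In-water treatment: compound dosed into 3 cm flood over soil, water level unchanged throughout. Controls run alongside; visual assessment at day 13–15.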
# [3] = system: velvetleaf; assay: Test A pre-/postemergence greenhouse test; format: in vivo, Abutilon theophrasti; details: for Plant response rating, Velvetleaf: 0 to 100 scale where 0 is no effect and 100 is complete control; for Velvetleaf plant response rating: 0 to 100 scale
# Method in brief: as §1
# [4] = system: crabgrass; assay: Test A pre-/postemergence greenhouse test; format: in vivo, Digitaria sanguinalis; details: for Plant response rating, Crabgrass, Large: 0 to 100 scale where 0 is no effect and 100 is complete control; for Crabgrass, Large plant response rating: 0 to 100 scale
# Method in brief: as §1
# [5] = system: umbrella sedge; assay: Test C flooded paddy test; format: in vivo, Cyperus difformis; details: Flood
# Method in brief: as §2
# [6] = system: duck salad; assay: Test C flooded paddy test; format: in vivo, Heteranthera limosa; details: Flood
# Method in brief: as §2
# [7] = system: giant foxtail; assay: Test A pre-/postemergence greenhouse test; format: in vivo, Setaria faberi; details: for Plant response rating, Foxtail, Giant: 0 to 100 scale where 0 is no effect and 100 is complete control; for Foxtail, Giant plant response rating: 0 to 100 scale
# Method in brief: as §1
# [8] = system: barnyardgrass; assay: Test A pre-/postemergence greenhouse test; format: in vivo, Echinochloa crus-galli; details: for Plant response rating, Barnyardgrass: 0 to 100 scale where 0 is no effect and 100 is complete control; for Barnyardgrass plant response rating: 0 to 100 scale
# Method in brief: as §1
# [9] = system: wheat; assay: Test A pre-/postemergence greenhouse test; format: in vivo, Triticum aestivum; details: for Plant response rating, Wheat: 0 to 100 scale where 0 is no effect and 100 is complete control; for Wheat plant response rating: 0 to 100 scale
# Method in brief: as §1
# [10] = system: barnyardgrass; assay: Test C flooded paddy test; format: in vivo, Echinochloa crus-galli; details: Flood
# Method in brief: as §2
# [11] = system: corn; assay: Test A pre-/postemergence greenhouse test; format: in vivo, Zea mays; details: for Plant response rating, Corn: 0 to 100 scale where 0 is no effect and 100 is complete control; for Corn plant response rating: 0 to 100 scale
# Method in brief: as §1
# [12] = system: redroot pigweed; assay: Test A pre-/postemergence greenhouse test; format: in vivo, Amaranthus retroflexus; details: for Plant response rating, Pigweed: 0 to 100 scale where 0 is no effect and 100 is complete control; for Pigweed plant response rating: 0 to 100 scale
# Method in brief: as §1
# [13] = Postemergence, 500 g ai/ha, 0 is no effect, 100 is complete control
# [14] = Preemergence, 125 g ai/ha, 0 no effect, 100 complete control
# [15] = Preemergence, 500 g ai/ha, 0 no effect, 100 complete control
# [16] = 31 g ai/ha, scale 0 to 100 (0 no effect, 100 complete control)
# [17] = 62 g ai/ha, scale 0 to 100 (0 no effect, 100 complete control)
# [18] = 125 g ai/ha, scale 0 to 100, 0 no effect, 100 complete control, 13 to 15 days
# [19] = 250 g ai/ha, scale 0 to 100, 0 no effect, 100 complete control, 13 to 15 days
# [20] = Postemergence, 125 g ai/ha, 0 is no effect, 100 is complete control
# [21] = 62 g ai/ha, scale 0 to 100, 0 no effect, 100 complete control, 13 to 15 days
# [22] = 250 g ai/ha, scale 0 to 100 (0 no effect, 100 complete control)
smiles,measurement,setting,value
Cc1ccc[n+]([O-])c1[S+]([O-])Cc1c(C(F)(F)F)nn(C)c1OC(F)F (stereo not drawn) [Compound 112],"Plant response rating, Morningglory","[1]; Postemergence, 125 g ai/ha",70
same,Morningglory plant response rating,[1]; [13],90
same,Morningglory plant response rating,[1]; [14],60
same,Morningglory plant response rating,[1]; [15],90
same,"Plant response rating, Rice",[2]; [16],0
same,"Plant response rating, Rice",[2]; [17],0
same,"Plant response rating, Rice",[2]; [18],0
same,"Plant response rating, Rice",[2]; [19],15
same,"Plant response rating, Velvetleaf","[3]; Postemergence, 125 g ai/ha",50
same,Velvetleaf plant response rating,[3]; [13],70
same,Velvetleaf plant response rating,[3]; [14],10
same,Velvetleaf plant response rating,[3]; [15],60
same,"Plant response rating, Crabgrass, Large","[4]; Postemergence, 125 g ai/ha",70
same,"Crabgrass, Large plant response rating",[4]; [13],80
same,"Crabgrass, Large plant response rating",[4]; [14],70
same,"Crabgrass, Large plant response rating",[4]; [15],90
same,"Plant response rating, Sedge, Umbrella",[5]; [16],0
same,"Plant response rating, Sedge, Umbrella",[5]; [17],30
same,"Plant response rating, Sedge, Umbrella",[5]; [18],75
same,"Plant response rating, Sedge, Umbrella",[5]; [19],95
same,"Plant response rating, Ducksalad",[6]; [16],0
same,"Plant response rating, Ducksalad",[6]; [17],0
same,"Plant response rating, Ducksalad",[6]; [18],20
same,"Plant response rating, Ducksalad",[6]; [19],50
same,"Plant response rating, Foxtail, Giant","[7]; Postemergence, 125 g ai/ha",70
same,"Foxtail, Giant plant response rating",[7]; [13],80
same,"Foxtail, Giant plant response rating",[7]; [14],80
same,"Foxtail, Giant plant response rating",[7]; [15],100
same,"Plant response rating, Barnyardgrass","[8]; Postemergence, 125 g ai/ha",70
same,Barnyardgrass plant response rating,[8]; [13],80
same,Barnyardgrass plant response rating,[8]; [14],60
same,Barnyardgrass plant response rating,[8]; [15],90
same,"Plant response rating, Wheat","[9]; Postemergence, 125 g ai/ha",50
same,Wheat plant response rating,[9]; [13],60
same,Wheat plant response rating,[9]; [14],40
same,Wheat plant response rating,[9]; [15],70
same,"Plant response rating, Barnyardgrass",[10]; [16],0
same,"Plant response rating, Barnyardgrass",[10]; [17],0
same,"Plant response rating, Barnyardgrass",[10]; [18],15
same,"Plant response rating, Barnyardgrass",[10]; [19],45
same,"Plant response rating, Corn","[11]; Postemergence, 125 g ai/ha",50
same,Corn plant response rating,[11]; [13],60
same,Corn plant response rating,[11]; [14],40
same,Corn plant response rating,[11]; [15],70
same,"Plant response rating, Pigweed","[12]; Postemergence, 125 g ai/ha",40
same,Pigweed plant response rating,[12]; [13],60
same,Pigweed plant response rating,[12]; [14],10
same,Pigweed plant response rating,[12]; [15],90
CC(c1c(C(F)(F)F)nn(C)c1OC(F)F)S(=O)(=O)c1ccc(Br)c[n+]1[O-] (racemic) [Compound 23],Morningglory plant response rating,[1]; [20],0
same,Morningglory plant response rating,[1]; [13],0
same,Morningglory plant response rating,[1]; [14],0
same,"Plant response rating, Morningglory","[1]; Preemergence, 500 g ai/ha",0
same,"Plant response rating, Rice",[2]; [16],0
same,"Plant response rating, Rice",[2]; [21],70
same,"Plant response rating, Rice",[2]; [18],70
same,"Plant response rating, Rice",[2]; [22],70
same,Velvetleaf plant response rating,[3]; [20],0
same,Velvetleaf plant response rating,[3]; [13],0
same,Velvetleaf plant response rating,[3]; [14],0
same,"Plant response rating, Velvetleaf","[3]; Preemergence, 500 g ai/ha",0
same,"Crabgrass, Large plant response rating",[4]; [20],40
same,"Crabgrass, Large plant response rating",[4]; [13],50
same,"Crabgrass, Large plant response rating",[4]; [14],60
same,"Plant response rating, Crabgrass, Large","[4]; Preemergence, 500 g ai/ha",90
same,"Plant response rating, Sedge, Umbrella",[5]; [16],0
same,"Plant response rating, Sedge, Umbrella",[5]; [21],55
same,"Plant response rating, Sedge, Umbrella",[5]; [18],75
same,"Plant response rating, Sedge, Umbrella",[5]; [19],75
same,"Plant response rating, Ducksalad",[6]; [16],0
same,"Plant response rating, Ducksalad",[6]; [21],60
same,"Plant response rating, Ducksalad",[6]; [18],70
same,"Plant response rating, Ducksalad",[6]; [22],80
same,"Foxtail, Giant plant response rating",[7]; [20],0
same,"Foxtail, Giant plant response rating",[7]; [13],40
same,"Foxtail, Giant plant response rating",[7]; [14],30
same,"Plant response rating, Foxtail, Giant","[7]; Preemergence, 500 g ai/ha",80
same,Barnyardgrass plant response rating,[8]; [20],0
same,Barnyardgrass plant response rating,[8]; [13],0
same,Barnyardgrass plant response rating,[8]; [14],40
same,"Plant response rating, Barnyardgrass","[8]; Preemergence, 500 g ai/ha",90
same,Wheat plant response rating,[9]; [20],0
same,Wheat plant response rating,[9]; [13],0
same,Wheat plant response rating,[9]; [14],0
same,"Plant response rating, Wheat","[9]; Preemergence, 500 g ai/ha",0
same,"Plant response rating, Barnyardgrass",[10]; [16],0
same,"Plant response rating, Barnyardgrass",[10]; [21],45
same,"Plant response rating, Barnyardgrass",[10]; [18],60
same,"Plant response rating, Barnyardgrass",[10]; [22],70
same,Corn plant response rating,[11]; [20],0
same,Corn plant response rating,[11]; [13],0
same,Corn plant response rating,[11]; [14],0
same,"Plant response rating, Corn","[11]; Preemergence, 500 g ai/ha",0
same,Pigweed plant response rating,[12]; [20],0
same,Pigweed plant response rating,[12]; [13],50
same,Pigweed plant response rating,[12]; [14],100
same,"Plant response rating, Pigweed","[12]; Preemergence, 500 g ai/ha",100
